The results in this text go back to patent US11613558B2, “Peptides and pharmaceutical compositions for treating eye diseases” (Yuyu Pharma, Inc., priority 2018, dated 2023).

Square brackets hold non-standard residues; d marks the D form. Peptide text beside a SMILES is read from it. ξ: configuration not given here. Hyp = O=C(O)[C@@H]1C[C@@H](O)CN1; Ile(3ξ) = CCC(C)[C@H](N)C(=O)O

The test system of data set [1] is rats with dry eye syndrome (extraorbital lacrimal gland excision, ELGE). Kind of data set: Amount of tear secretion (Schirmer test, cobalt chloride paper) in ELGE rats with dry eye syndrome. Type of data set: in vivo, rat. The conditions noted are these: for Tear Volumes, Day 7 / Tear Volumes, Day 14: Table 4, study of YDE-001 to YDE-028, ELGE rats, 3 mg/ml, 5 μl/eye twice daily; for Tear Volumes, Day 7: day 7 of administration; for Tear Volumes, Day 14: day 14 of administration; for Change in amount of tear secretion as compared with the ELGE control group: study of YDE-001 to YDE-028, 3% solution as printed, after administration for 14 days.
Description: (§1) In order to evaluate the eye protection effect on dry eye syndrome by YDE-001 to YDE-028 prepared in Example 1, a total of 320 Sprague-Dawley-type male rats (OrientBio, Seungnam, Korea) were adapted for 7 days. Thereafter, dry eye syndrome was induced in 264 test rats through extraorbital lacrimal gland excision (hereinafter, ELGE). 8 test rats without the eye abnormality were subjected to a sham operation as a control group.
(§2) The rat was systemically anesthetized by inhaling a mixed gas of 2% to 3% of isoflurane (Hana Pharm. Co., Hwasung, Korea), 70% of N2O, and 28.6% of O2 using a rodent anesthesia machine (Surgivet, Waukesha, Wis., USA) and a ventilator (Model 687, Harvard Apparatus, Cambridge, UK). Thereafter, the extraorbital lacrimal gland located in the subdermal area above the masseter muscle and […] was excised through a transverse incision in a size of 10 mm on the anterior part of the left ear tragus. The skin was sutured by a general method. […] After 6 days from the ELGE operation, it was checked through the Schirmer test by measuring the amount of tear secretion whether dry eye syndrome had been induced. Meanwhile, each rat of the control group with the sham operation was checked for the presence and location of the extraorbital lacrimal gland through a skin incision, and the skin was then sutured without the excision thereof (FIG. 4).
(§3) In addition, in order to evaluate the eye protection effect on dry eye syndrome by YDE-029 to YDE-043 prepared in Example 1, a total of 200 Sprague-Dawley-type male rats (OrientBio, Seungnam, Korea) were adapted for 7 days. Dry eye syndrome was induced in 165 test rats through the ELGE. 8 test rats without the eye abnormality were subjected to the sham operation as a control group. The ELGE was carried out as described above.
(§4) For YDE-001 to YDE-028, YY-102 and the 28 YDE-series were each dissolved in physiological saline at a concentration of 3 mg/ml and administered at a dose of 5 μl/eye at 9:30 am and 3:30 pm daily for 14 days after 7 days from the ELGE operation for a total of 28 times. The DS solution was dissolved in physiological saline at a concentration of 30 mg/ml and administered at a dose of […] twice a day for 14 days after 7 days from the ELGE operation for a total of 28 times. For the sham control and the ELGE control groups, the same stimulation as the administration was applied. In order to prevent excessive eye dryness, the same volume of physiological saline was applied in the same manner in place of the test substances.
as §4, with “Further, for YDE-029 to YDE-043,” for “For YDE-001 to YDE-028,”, “YDE-029 to YDE-043, YY-102 and” for “YDE-001 to YDE-028, YY-102 and”, “and the 15 YDE-series were” for “and the 28 YDE-series were”, “the test substances (FIG. 7).” for “the test substances.”
After 6 days from the ELGE surgery, the changes in the amount of tear secretion were measured at day 7 and day 14 after the administration of YDE-001 to YDE-043. The amount of tear secretion was measured by the […] travel distance of tears absorbed by cobalt chloride paper in a size of 1×15 mm (Toyo Roshi Kaisha, Japan).
The cobalt chloride paper was placed in the lateral canthus of a rat for 60 seconds to absorb tears (FIG. 9). The length of the area absorbed from the corner of the cobalt chloride paper was measured with an electronic digital caliper (Mytutoyo, Tokyo, Japan) (FIG. 8).

Data set [2] in a line: Stability in aqueous solution under long-term storage conditions (related substances). Conditions: 25° C., 75% RH. The class given is physicochemical. The method, then: In order to confirm the stability of each test substance in an aqueous solution, […] of each sample was dissolved in 1 ml of water to a concentration of 1 mg/ml, which was then charged to a glass vial, plugged with a rubber cap, sealed with an aluminum cap, and stored under long-term storage conditions (25° C., 75% RH). The stability of the test substance was evaluated by measuring the amount of related substances at the time of one week, two weeks, four weeks, eight weeks, and twelve weeks under the long-term storage conditions.

Data set [3] deals with cornea of rats with dry eye syndrome (ELGE). Kind of data set: Corneal permeability of fluorescent dye (corneal damage) in ELGE rats with dry eye syndrome. The class given is in vivo, rat. Conditions: Table 6, study of YDE-001 to YDE-028, 3 mg/ml, 5 μl/eye twice daily, day 14.
Description: as §1, §2, §3, §4
as §4, with “Further, for YDE-029 to YDE-043,” for “For YDE-001 to YDE-028,”, “YDE-029 to YDE-043, YY-102 and” for “YDE-001 to YDE-028, YY-102 and”, “and the 15 YDE-series were” for “and the 28 YDE-series were”, “the test substances (FIG. 7).” for “the test substances.”
After YDE-001 to YDE-028 were each administered to the eyes […], the changes in the corneal permeability were checked.
In order to measure the corneal permeability, Zolethyl 50™ (Virbac Lab., Carros, France), an animal anesthetic, was intraperitoneally injected at a dose of 25 mg/kg. Thereafter, saline containing a 1% (v/v) fluorescent solution (fluorescein sodium salt, Tokyo Kasei Kogyo Co., Tokyo, Japan) was applied to the eyes at a dose of 5 μl/eye. The eyes thus treated were closed and fixed with a tape. After 1 hour, the remaining fluorescent solution was removed using a cotton swab (FIG. 12). […]

Consider `CC(C)C[C@H](NC(=O)CNC(=O)[C@H](Cc1ccc(O)cc1)NC(=O)[C@H](CCC(N)=O)NC(=O)CNC(=O)[C@@H]1C[C@@H](O)CN1)C(=O)N[C@@H](C)C(=O)NCC(=O)N1CCC[C@H]1C(=O)N[C@@H](CCCCN)C(=O)O` [YDE-013] (H-[Hyp]GQYGLAGPK-OH), for which, in data set [1], the “Tear Volumes, Day 7” value is listed as 5.27 ± 1.50 mm^3 and the “Tear Volumes, Day 14” value is given as 5.49 ± 1.92 mm^3. For the same compound, the “Amount of related substances (after 12 weeks)” value (shortened to “Amount of related substances”) in data set [2] is 5.92%. Also, in data set [3], the “Permeability of fluorescent dye” value turned out to be 32.24 ± 7.84%.
With `CC(C)C[C@H](NC(=O)CNC(=O)[C@H](Cc1c[nH]c2ccccc12)NC(=O)[C@H](CCC(N)=O)NC(=O)CNC(=O)[C@@H]1C[C@@H](O)CN1)C(=O)N[C@@H](C)C(=O)NCC(=O)N1CCC[C@H]1C(=O)N[C@@H](CCCCN)C(=O)O` [YDE-014] (H-[Hyp]GQWGLAGPK-OH), in data set [1], the “Tear Volumes, Day 7” value was 3.81 ± 1.21 mm^3 and the “Tear Volumes, Day 14” value is reported as 5.62 ± 1.85 mm^3. The “Amount of related substances” value in data set [2] turned out to be 6.72%. Further, the “Permeability of fluorescent dye” value in data set [3] came out at 31.15 ± 10.87%.
`CC(C)C[C@H](NC(=O)[C@@H](NC(=O)[C@H](CC(=O)O)NC(=O)[C@H](CCC(N)=O)NC(=O)CNC(=O)[C@@H]1C[C@@H](O)CN1)C(C)C)C(=O)N[C@@H](C)C(=O)NCC(=O)N1CCC[C@H]1C(=O)N[C@@H](CCCCN)C(=O)O` [YDE-015] (H-[Hyp]GQDVLAGPK-OH): in data set [1], the “Tear Volumes, Day 7” value turned out to be 4.03 ± 2.19 mm^3 and the “Tear Volumes, Day 14” value stood at 6.65 ± 2.13 mm^3. In addition, in data set [2], the “Amount of related substances” value is reported as 13.05%. For the same compound, the “Permeability of fluorescent dye” value in data set [3] was 15.95 ± 6.48%.
For `CCC(C)[C@H](NC(=O)[C@H](CC(=O)O)NC(=O)[C@H](CCC(N)=O)NC(=O)CNC(=O)[C@@H]1C[C@@H](O)CN1)C(=O)N[C@@H](CC(C)C)C(=O)N[C@@H](C)C(=O)NCC(=O)N1CCC[C@H]1C(=O)N[C@@H](CCCCN)C(=O)O` (stereo partly shown) [YDE-016] (H-[Hyp]GQD[Ile(3ξ)]LAGPK-OH) the same measures were 4.59 ± 1.13 mm^3, 5.98 ± 2.27 mm^3, 11.33% and 24.57 ± 10.34%.
For the compound `CC(C)C[C@H](NC(=O)[C@H](CC(C)C)NC(=O)[C@H](CC(=O)O)NC(=O)[C@H](CCC(N)=O)NC(=O)CNC(=O)[C@@H]1C[C@@H](O)CN1)C(=O)N[C@@H](C)C(=O)NCC(=O)N1CCC[C@H]1C(=O)N[C@@H](CCCCN)C(=O)O` [YDE-017] (H-[Hyp]GQDLLAGPK-OH), in data set [1], the “Tear Volumes, Day 7” value amounted to 4.00 ± 1.22 mm^3; the “Tear Volumes, Day 14” value came to 4.89 ± 1.50 mm^3; the “Change in amount of tear secretion as compared with the ELGE control group” value (from here on “Change in amount of tear secretion”) is given as “did not show any significant changes”. Also, the “Amount of related substances” value in data set [2] came out at 11.88%. In data set [3], the “Permeability of fluorescent dye” value is 39.76 ± 7.42%.
As for `CC(C)C[C@H](NC(=O)[C@H](C)NC(=O)[C@H](CC(=O)O)NC(=O)[C@H](CCC(N)=O)NC(=O)CNC(=O)[C@@H]1C[C@@H](O)CN1)C(=O)N[C@@H](C)C(=O)NCC(=O)N1CCC[C@H]1C(=O)N[C@@H](CCCCN)C(=O)O` [YDE-018] (H-[Hyp]GQDALAGPK-OH), in data set [1], the “Tear Volumes, Day 7” value was found to be 3.75 ± 1.54 mm^3 and the “Tear Volumes, Day 14” value was found to be 4.99 ± 1.60 mm^3. The “Amount of related substances” value in data set [2] was determined as 25.39%. Further, the “Permeability of fluorescent dye” value in data set [3] was 38.19 ± 10.96%.
Turning to `CC(C)C[C@H](NC(=O)[C@H](Cc1ccccc1)NC(=O)[C@H](CC(=O)O)NC(=O)[C@H](CCC(N)=O)NC(=O)CNC(=O)[C@@H]1C[C@@H](O)CN1)C(=O)N[C@@H](C)C(=O)NCC(=O)N1CCC[C@H]1C(=O)N[C@@H](CCCCN)C(=O)O` [YDE-019] (H-[Hyp]GQDFLAGPK-OH), in data set [1], the “Tear Volumes, Day 7” value is on record as 4.84 ± 1.39 mm^3; the “Tear Volumes, Day 14” value is 4.52 ± 1.07 mm^3; the “Change in amount of tear secretion” value is “did not show any significant changes”. Moreover, in data set [2], the “Amount of related substances” value stood at 13.43%. In data set [3], the “Permeability of fluorescent dye” value amounted to 40.39 ± 12.57%.
For `CC(C)C[C@H](NC(=O)[C@H](Cc1ccc(O)cc1)NC(=O)[C@H](CC(=O)O)NC(=O)[C@H](CCC(N)=O)NC(=O)CNC(=O)[C@@H]1C[C@@H](O)CN1)C(=O)N[C@@H](C)C(=O)NCC(=O)N1CCC[C@H]1C(=O)N[C@@H](CCCCN)C(=O)O` [YDE-020] (H-[Hyp]GQDYLAGPK-OH), in data set [1], the “Tear Volumes, Day 7” value turned out to be 3.41 ± 1.47 mm^3; the “Tear Volumes, Day 14” value is recorded as 4.20 ± 1.35 mm^3; the “Change in amount of tear secretion” value was “did not show any significant changes”. Also, the “Amount of related substances” value in data set [2] amounted to 21.54%. Further, the “Permeability of fluorescent dye” value in data set [3] turned out to be 47.84 ± 13.47%.
For `CC(C)C[C@H](NC(=O)[C@H](Cc1c[nH]c2ccccc12)NC(=O)[C@H](CC(=O)O)NC(=O)[C@H](CCC(N)=O)NC(=O)CNC(=O)[C@@H]1C[C@@H](O)CN1)C(=O)N[C@@H](C)C(=O)NCC(=O)N1CCC[C@H]1C(=O)N[C@@H](CCCCN)C(=O)O` [YDE-021] (H-[Hyp]GQDWLAGPK-OH) the same measures were 4.08 ± 1.33 mm^3, 4.90 ± 1.13 mm^3, “did not show any significant changes”, 21.33% and 37.00 ± 10.49%.
The corresponding values for `CC(C)C[C@H](NC(=O)[C@H](Cc1c[nH]cn1)NC(=O)[C@H](CC(=O)O)NC(=O)[C@H](CCC(N)=O)NC(=O)CNC(=O)[C@@H]1C[C@@H](O)CN1)C(=O)N[C@@H](C)C(=O)NCC(=O)N1CCC[C@H]1C(=O)N[C@@H](CCCCN)C(=O)O` [YDE-022] (H-[Hyp]GQDHLAGPK-OH) are 3.19 ± 0.67 mm^3, 4.10 ± 0.95 mm^3, “did not show any significant changes”, 19.23% and 47.82 ± 10.01%.
With `CC(C)C[C@H](NC(=O)[C@H](CO)NC(=O)[C@H](CC(=O)O)NC(=O)[C@H](CCC(N)=O)NC(=O)CNC(=O)[C@@H]1C[C@@H](O)CN1)C(=O)N[C@@H](C)C(=O)NCC(=O)N1CCC[C@H]1C(=O)N[C@@H](CCCCN)C(=O)O` [YDE-023] (H-[Hyp]GQDSLAGPK-OH), in data set [1], the “Tear Volumes, Day 7” value amounted to 5.32 ± 2.30 mm^3 and the “Tear Volumes, Day 14” value is 5.78 ± 2.23 mm^3. Besides, the “Amount of related substances” value in data set [2] turned out to be 30.66%. Also, the “Permeability of fluorescent dye” value in data set [3] was 26.51 ± 8.18%.
